Consider 1 compound from article PMC8830019, “A sensitive, accurate, and high-throughput gluco-oligosaccharide oxidase-based HRP colorimetric method for assaying lytic polysaccharide monooxygenase activity” (Biotechnology for Biofuels and Bioproducts, 2022).

This assay has as its target T1, SsGOOX (recombinant gluco-oligosaccharide oxidase) (Sarocladium strictum, UniProt Q6PW77).
T1 construct: gene gluO; T. reesei cbh1 signal peptide at N-terminus, C-terminal 6xHis; codon-optimised synthetic gene, secreted by Trichoderma reesei QM9414
T1 sequence (Q6PW77 26-499): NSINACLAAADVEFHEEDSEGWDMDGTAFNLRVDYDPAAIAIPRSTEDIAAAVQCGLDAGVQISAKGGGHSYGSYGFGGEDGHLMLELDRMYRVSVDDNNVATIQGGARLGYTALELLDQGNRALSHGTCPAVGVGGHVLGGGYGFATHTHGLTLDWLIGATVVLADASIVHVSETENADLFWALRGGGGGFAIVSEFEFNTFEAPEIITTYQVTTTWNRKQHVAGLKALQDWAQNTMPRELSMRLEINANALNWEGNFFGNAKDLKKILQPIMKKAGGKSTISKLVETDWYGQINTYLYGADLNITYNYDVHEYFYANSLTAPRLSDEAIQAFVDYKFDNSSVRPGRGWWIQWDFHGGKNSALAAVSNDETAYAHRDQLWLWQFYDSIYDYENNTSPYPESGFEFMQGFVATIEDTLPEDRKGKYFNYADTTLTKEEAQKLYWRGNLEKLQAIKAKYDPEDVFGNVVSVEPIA
The assay is described as follows: HRP-coupled colorimetric H2O2 assay (4-AAP / DCHBS, A515), modified Hill's model with substrate inhibition. Format: biochemical. To be noted: pH 7.0 phosphate, room temperature (about 26 C), 10 nM enzyme, 0.02-5 mM cellobiose; Hill-type fit with substrate inhibition; substrate inhibition constant; second site.

As to `OC[C@H]1O[C@@H](O[C@H]2[C@H](O)[C@@H](O)C(O)O[C@@H]2CO)[C@H](O)[C@@H](O)[C@@H]1O` (stereo partly shown) [cellobiose], the Ki was 995 µM.
